Source: paper PMC8253220, “Molecular design, synthesis and in vitro biological evaluation of thienopyrimidine–hydroxamic acids as chimeric kinase HDAC inhibitors: a challenging approach to combat cancer” (Journal of Enzyme Inhibition and Medicinal Chemistry, 2021)
Several values for one entry are separate records, joined by “and”; a condition that tells them apart may be missing. Identical values can stand only once.

Experiments:
Assay in all cases: NCI one-dose screen
Assay type in all cases: cell-based, human
NCI-H322M = conditions: NSCLC NCI-H322M, 10 µM single dose
Procedure, shortened: (§1)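 At 10 μM, a single concentration, compounds were evaluated for antiproliferative effect in the NCI 60-line screen, with growth expressed relative to untreated control cells.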

U251 = conditions: CNS U251, 10 µM single dose
Procedure, shortened: as §1

MDA-MB-435 = conditions: Melanoma MDA-MB-435, 10 µM single dose
Procedure, shortened: as §1

HL-60(TB) = conditions: Leukemia HL-60(TB), 10 µM single dose
Procedure, shortened: as §1

HCC-2998 = conditions: Colon HCC-2998, 10 µM single dose
Procedure, shortened: as §1

T-47D = conditions: Breast T-47D, 10 µM single dose
Procedure, shortened: as §1

IGROV1 = conditions: Ovarian IGROV1, 10 µM single dose
Procedure, shortened: as §1

KM12 = conditions: Colon KM12, 10 µM single dose
Procedure, shortened: (§2)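 Growth of treated cells is compared with untreated controls to give percent inhibition. Compounds are applied once at 10 μM across the NCI 60 cancer cell panel.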

SF-268 = conditions: CNS SF-268, 10 µM single dose
Procedure, shortened: as §2

MOLT-4 = conditions: Leukemia MOLT-4, 10 µM single dose
Procedure, shortened: as §2

K-562 = conditions: Leukemia K-562, 10 µM single dose
Procedure, shortened: as §1

NCI-H226 = conditions: NSCLC NCI-H226, 10 µM single dose
Procedure, shortened: as §1

SF-295 = conditions: CNS SF-295, 10 µM single dose
Procedure, shortened: as §1

BT-549 = conditions: Breast BT-549, 10 µM single dose
Procedure, shortened: as §1

RPMI-8226 = conditions: Leukemia RPMI-8226, 10 µM single dose
Procedure, shortened: as §1

HOP-92 = conditions: NSCLC HOP-92, 10 µM single dose
Procedure, shortened: as §1

LOX IMVI = conditions: Melanoma LOX IMVI, 10 µM single dose
Procedure, shortened: as §1

PC-3 = conditions: Prostate PC-3, 10 µM single dose
Procedure, shortened: (§3)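 Compounds were tested at a single dose of 10 μM across the full NCI-60 cell line panel. Growth was expressed as percent growth relative to untreated control cells, reported as percent inhibition.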

SNB-19 = conditions: CNS SNB-19, 10 µM single dose
Procedure, shortened: as §1

OVCAR-5 = conditions: Ovarian OVCAR-5, 10 µM single dose
Procedure, shortened: as §1

OVCAR-8 = conditions: Ovarian OVCAR-8, 10 µM single dose
Procedure, shortened: as §1

HS 578T = conditions: Breast HS 578T, 10 µM single dose
Procedure, shortened: as §1

MDA-MB-468 = conditions: Breast MDA-MB-468, 10 µM single dose
Procedure, shortened: as §2

UO-31 = conditions: Renal UO-31, 10 µM single dose
Procedure, shortened: as §1

NCI-H23 = conditions: NSCLC NCI-H23, 10 µM single dose
Procedure, shortened: as §2

SR = conditions: Leukemia SR, 10 µM single dose
Procedure, shortened: as §1

SW-620 = conditions: Colon SW-620, 10 µM single dose
Procedure, shortened: as §3

SN12C = conditions: Renal SN12C, 10 µM single dose
Procedure, shortened: as §1

DU-145 = conditions: Prostate DU-145, 10 µM single dose
Procedure, shortened: as §1

COLO 205 = conditions: Colon COLO 205, 10 µM single dose
Procedure, shortened: as §1

NCI-H460 = conditions: NSCLC NCI-H460, 10 µM single dose
Procedure, shortened: as §1

SK-MEL-2 = conditions: Melanoma SK-MEL-2, 10 µM single dose
Procedure, shortened: as §1

SK-MEL-28 = conditions: Melanoma SK-MEL-28, 10 µM single dose
Procedure, shortened: as §3

UACC-257 = conditions: Melanoma UACC-257, 10 µM single dose
Procedure, shortened: as §3

MCF7 = conditions: Breast MCF7, 10 µM single dose
Procedure, shortened: as §2

HOP-62 = conditions: NSCLC HOP-62, 10 µM single dose
Procedure, shortened: as §1

CAKI-1 = conditions: Renal CAKI-1, 10 µM single dose
Procedure, shortened: as §1

SMILES | Growth Percent (NCI-H322M) | Growth Percent (U251) | Growth Percent (MDA-MB-435) | Growth Percent (HL-60(TB)) | Growth Percent (HCC-2998) | Growth Percent (T-47D) | Growth Percent (IGROV1) | Growth Percent (KM12) | Growth Percent (SF-268) | Growth Percent (MOLT-4) | Growth Percent (K-562) | Growth Percent (NCI-H226) | Growth Percent (SF-295) | Growth Percent (BT-549) | Growth Percent (RPMI-8226) | Growth Percent (HOP-92) | Growth Percent (LOX IMVI) | Growth Percent (PC-3) | Growth Percent (SNB-19) | Growth Percent (OVCAR-5) | further results
Cc1c(C(=O)NCCC(=O)NO)sc2ncnc(Nc3ccc(Cl)cc3)c12 [Compound 19c, 4–(4-chlorophenylamino)-N-(3-(hydroxyamino)-3-oxopropyl)-5-methylthieno[2,3-d]pyrimidine-6-carboxamide] | 105.7% and 105.79% | 104.8% and 104.84% | 102.9% and 102.91% | 104.5% and 104.56% | 105.3% and 105.39% | 106.95% | 105.4% and 105.45% | 102.0% and 102.09% | 97.6% and 97.68% | 108.6% and 108.67% | 106.4% and 106.41% | 106.8% and 106.83% | 99.7% and 99.97% | 103.5% and 103.54% | 105.4% and 105.48% | 124.7% and 124.71% | 98.8% and 98.82% | 110.4% and 110.47% | 103.7% and 103.73% | 110.3% and 110.34% | Growth Percent (OVCAR-8): 104.1% and 104.13%; Growth Percent (HS 578T): 105.8% and 105.84%; Growth Percent (MDA-MB-468): 119.7% and 119.73%; Growth Percent (UO-31): 79.9% and 79.99%; Growth Percent (NCI-H23): 102.7%; Growth Percent (SR): 101.3% and 101.35%; Growth Percent (SW-620): 102.5% and 102.53%; Growth Percent (SN12C): 101.7% and 101.77%; Growth Percent (DU-145): 114.2%; Growth Percent (COLO 205): 115.7% and 115.76%; Growth Percent (NCI-H460): 100.4% and 100.45%; Growth Percent (SK-MEL-2): 101.8% and 101.81%; Growth Percent (SK-MEL-28): 112.1%; Growth Percent (UACC-257): 115.4%; Growth Percent (MCF7): 93.4%; Growth Percent (HOP-62): 105.8% and 105.87%; Growth Percent (CAKI-1): 90.4% and 90.48%
Cc1c(C(=O)NCCC(=O)NO)sc2ncnc(Nc3ccc(F)c(Cl)c3)c12 [Compound 19d, 4–(3-chloro-4-fluorophenylamino)-N-(3-(hydroxyamino)-3-oxopropyl)-5-methylthieno[2,3-d]pyrimidine-6-carboxamide] | 108.1% and 108.11% | 102.2% and 102.27% | 101.8% and 101.82% | 102.8% | 104.7% and 104.72% | 106.5% and 106.56% | 106.2% and 106.28% | 103.8% and 103.84% | 96.4% and 96.48% | 115.3% and 115.32% | 113.3% | 104.0% and 104.06% | 96.0% and 96.07% | 113.9% and 113.96% | 110.0% and 110.01% | 117.7% and 117.77% | 98.8% and 98.84% | 103.5% and 103.52% | 98.9% and 98.91% | 108.4% and 108.42% | Growth Percent (OVCAR-8): 101.3% and 101.35%; Growth Percent (HS 578T): 103.1% and 103.12%; Growth Percent (MDA-MB-468): 102.7% and 102.77%; Growth Percent (UO-31): 84.8% and 84.81%; Growth Percent (NCI-H23): 100.6%; Growth Percent (SR): 110.82%; Growth Percent (SW-620): 101.5%; Growth Percent (SN12C): 102.7% and 102.77%; Growth Percent (DU-145): 111.2% and 111.26%; Growth Percent (COLO 205): 117.3% and 117.34%; Growth Percent (NCI-H460): 100.4% and 100.44%; Growth Percent (SK-MEL-2): 100.6% and 100.61%; Growth Percent (SK-MEL-28): 111.5% and 111.54%; Growth Percent (UACC-257): 99.7% and 99.74%; Growth Percent (MCF7): 95.1% and 95.18%; Growth Percent (HOP-62): 104.5% and 104.52%; Growth Percent (CAKI-1): 96.6% and 96.62%
Cc1c(C(=O)NCCCC(=O)NO)sc2ncnc(Nc3ccccc3)c12 [Compound 20b, N-(4-(hydroxyamino)-4-oxobutyl)-5-methyl-4-(phenylamino)thieno[2,3-d]pyrimidine-6-carboxamide] | 107.3% and 107.33% | 98.2% and 98.23% | 103.3% and 103.32% | 104.1% and 104.16% | 104.7% and 104.78% | 104.4% and 104.47% | 107.3% and 107.35% | 101.4% and 101.41% | 97.1% and 97.16% | 109.4% and 109.45% | 104.9% and 104.96% | 97.5% and 97.52% | 90.6% and 90.64% | 128.8% and 128.88% | 102.2% | 110.5% and 110.53% | 96.5% and 96.54% | 108% | 97.5% and 97.59% | 100.2% and 100.23% | Growth Percent (OVCAR-8): 98.7%; Growth Percent (HS 578T): 102.2% and 102.24%; Growth Percent (MDA-MB-468): 98.0% and 98.03%; Growth Percent (UO-31): 88.2% and 88.29%; Growth Percent (NCI-H23): 99.6% and 99.63%; Growth Percent (SR): 99.2% and 99.22%; Growth Percent (SW-620): 102.0% and 102.07%; Growth Percent (SN12C): 100.3% and 100.34%; Growth Percent (DU-145): 111% and 111.21%; Growth Percent (COLO 205): 106.5% and 106.57%; Growth Percent (NCI-H460): 99.4% and 99.46%; Growth Percent (SK-MEL-2): 102.9%; Growth Percent (SK-MEL-28): 115.5% and 115.55%; Growth Percent (UACC-257): 103.9% and 103.93%; Growth Percent (MCF7): 92.1% and 92.13%; Growth Percent (HOP-62): 100.8% and 100.81%; Growth Percent (CAKI-1): 96.9% and 96.93%
